{"source": "patent US8679461B2", "about": "“Use of hesperetin for enhancing the sweet taste” (Symrise AG, priority 2005, dated 2014)", "key": {"[1]": {"tested_on": "sweet impression of a 5% by weight sucrose-containing solution", "experiment": "Enhancing the sweet impression of a sugar solution, rating by a group of experts (Application Example 1)", "type": "in vivo", "conditions": "for total number of tasters against the number of tasters who found the test solution sweeter / % Enhancement of the sweet impression: 5% sucrose + 100 ppm substance against 5% sucrose solution; for % Enhancement of the sweet impression: calculated from mean ratings; for Sweet impression (1-10) b) with: 5% sucrose + 100 ppm substance, rating 0 [not sweet] to 10 [extremely sweet], mean ± standard deviation", "procedure": "In order to quantify the enhancement of a sweet impression owing to the addition of hesperetin, the respective sweetness of a 5% by weight sucrose-containing solution and of samples which contained 5% sucrose and 100 ppm hesperetin (source: Sigma-Aldrich, Order.-No. H 4125, CA-No. 41001-90-5) or a quantity of comparative hydroxyflavanones naringenin, eriodictyol, homoeriodictyol or eriodictyol-7-methylether (cf. US 2002 188,019) was determined by a group of experts (rating0 [not sweet] to 10 [extremely sweet]). Evaluation took place as a calculation of the enhancement (in %) of the sweet impression from the mean values of the assessments of the sucrose solution or the sucrose and compound 2-containing solution."}, "sweet taste": {"tested_on": "sweet taste", "conditions": "concentration of 200 ppm; cited from earlier work"}, "[2]": {"tested_on": "sweet impression of sucrose-containing solutions", "experiment": "Sweet impression of a sugar-reduced test solution, rating by a group of experts (Application Example 2)", "type": "in vivo", "procedure": "In order to quantify the retention of a sweet impression when replacing a sucrose content with a small quantity of hesperetin, the respective sweetness of (a) a 6% by weight sucrose-containing solution against a 5% by weight sucrose-containing solution and (b) a 6% by weight sucrose-containing solution against a solution which contained 5% sucrose and a quantity of hesperetin (source: Sigma-Aldrich, Order No. H 4125, CA-No. 41001-90-5) was determined by a group of experts (rating 0 [not sweet] to 10 [extremely sweet]). Evaluation took place as a calculation of the enhancement (in %) of the sweet impression from the mean values of the assessments of the 6% or 5% sucrose-containing solution or 5% sucrose and 100 ppm hesperetin-containing solution."}}, "note": "Several values for one entry are separate records, joined by “and”; a condition that tells them apart may be missing. Equal values may be shown once.", "data": [{"smiles": "COc1cc(O)c2c(c1)OC(c1ccc(O)c(O)c1)CC2=O", "note": "(stereo not drawn) [Eriodictyol-7-methylether]", "values": [{"measurement": "total number of tasters against the number of tasters who found the test solution sweeter", "setting": "[1]", "result": "18/13"}, {"measurement": "% Enhancement of the sweet impression", "setting": "[1]", "result": "+15.9%"}, {"measurement": "Sweet impression (1-10) b) with", "setting": "[1]", "result": "5.7 ± 1.9"}]}, {"smiles": "O=C1C[C@@H](c2ccc(O)c(O)c2)Oc2cc(O)cc(O)c21", "note": "[Eriodictyol]", "values": [{"measurement": "total number of tasters against the number of tasters who found the test solution sweeter", "setting": "[1]", "result": "12/2"}, {"measurement": "% Enhancement of the sweet impression", "setting": "[1]", "result": "−16.7", "unit": "%"}, {"measurement": "Sweet impression (1-10) b) with", "setting": "[1]", "result": "5.4 ± 1.2"}]}, {"smiles": "COc1ccc(C2CC(=O)c3c(O)cc(O)cc3O2)cc1O", "note": "(stereo not drawn) [Hesperetin, 4′-methoxy-3′,5,7-trihydroxyflavanone]", "values": [{"measurement": "inherent taste (in words)", "setting": "sweet taste", "result": "very weak sweet taste"}, {"measurement": "total number of tasters against the number of tasters who found the test solution sweeter", "setting": "[2]; test (b): 5% sucrose + 100 ppm hesperetin against 6% sucrose", "result": "15/12"}, {"measurement": "% Enhancement of the sweet impression", "setting": "[2]; test (b): 5% sucrose + 100 ppm hesperetin against 6% sucrose solution", "result": "+21%"}, {"measurement": "Sweet impression (1-10) 5% sucrose + 100 ppm hesperetin", "setting": "[2]; test (b), mean ± standard deviation", "result": "7.9 ± 1.5"}, {"measurement": "total number of tasters against the number of tasters who found the test solution sweeter", "setting": "[1]", "result": "16/14"}, {"measurement": "% Enhancement of the sweet impression", "setting": "[1]", "result": "+41%"}, {"measurement": "Sweet impression (1-10) b) with", "setting": "[1]", "result": "7.1 ± 2.4"}, {"measurement": "sweet-enhancing effect (in words)", "setting": "[1]; in contrast to naringenin, homoeriodictyol, eriodictyol and eriodictyol-7-methylether, cf. Example 1", "result": "clear and significant sweet-enhancing effect"}]}, {"smiles": "COc1cc([C@@H]2CC(=O)c3c(O)cc(O)cc3O2)ccc1O", "note": "[Homoeriodictyol]", "values": [{"measurement": "total number of tasters against the number of tasters who found the test solution sweeter", "setting": "[1]", "result": "19/13"}, {"measurement": "% Enhancement of the sweet impression", "setting": "[1]", "result": "+6.4%"}, {"measurement": "Sweet impression (1-10) b) with", "setting": "[1]", "result": "6.1 ± 1.5"}]}, {"smiles": "O=C1C[C@@H](c2ccc(O)cc2)Oc2cc(O)cc(O)c21", "note": "[Naringenin]", "values": [{"measurement": "total number of tasters against the number of tasters who found the test solution sweeter", "setting": "[1]", "result": "19/12"}, {"measurement": "% Enhancement of the sweet impression", "setting": "[1]", "result": "+7.5%"}, {"measurement": "Sweet impression (1-10) b) with", "setting": "[1]", "result": "6.0 ± 1.7"}]}, {"smiles": "OC[C@H]1O[C@@](CO)(O[C@H]2O[C@H](CO)[C@@H](O)[C@H](O)[C@H]2O)[C@@H](O)[C@@H]1O", "note": "[sucrose]", "values": [{"measurement": "Sweet impression (1-10) 5% sucrose", "setting": "[2]; 5% by weight sucrose solution, test (a), mean ± standard deviation", "result": "5.0 ± 1.6"}, {"measurement": "Sweet impression (1-10) 6% sucrose", "setting": "[2]; 6% by weight sucrose solution, reference in tests (a) and (b), mean ± standard deviation", "result": "6.5 ± 1.5 and 6.9 ± 1.6"}, {"measurement": "total number of tasters against the number of tasters who found the test solution sweeter", "setting": "[2]; test (a): 5% sucrose against 6% sucrose", "result": "15/0"}, {"measurement": "% Enhancement of the sweet impression", "setting": "[2]; test (a): 5% sucrose solution against 6% sucrose solution", "result": "−30", "unit": "%"}]}]}
